# In ChEMBL document CHEMBL1201862, “PubChem BioAssay data set” (2004):
# Calls of active or inactive are those of the source.
# Assays:
# [1] = viability of HCT116 lacking mutant beta-catenin – cell-based, human colon tumor, dose response (AID 1045); format: functional;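 note: HCT116 colon tumor cells with beta catenin knocked out; cells exposed to compound for 60 hours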
# [2] = viability of PTEN-deleted HCT116 cells – cell-based, HCT116 PTEN knockout, dose response (AID 1047); format: functional;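 note: HCT116 colon tumor cells with PTEN knocked out; cells exposed to compound for 60 hours before readout; potency for loss of cell viability measured by luminescence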
# [3] = target: T1, Calpain-2 catalytic subunit (Sus scrofa, UniProt P43367); experiment: m-calpain protease blockers, concentration series – biochemical, fluorogenic peptide substrate, dose response (AID 1420); format: functional
# T1 sequence (P43367 whole entry): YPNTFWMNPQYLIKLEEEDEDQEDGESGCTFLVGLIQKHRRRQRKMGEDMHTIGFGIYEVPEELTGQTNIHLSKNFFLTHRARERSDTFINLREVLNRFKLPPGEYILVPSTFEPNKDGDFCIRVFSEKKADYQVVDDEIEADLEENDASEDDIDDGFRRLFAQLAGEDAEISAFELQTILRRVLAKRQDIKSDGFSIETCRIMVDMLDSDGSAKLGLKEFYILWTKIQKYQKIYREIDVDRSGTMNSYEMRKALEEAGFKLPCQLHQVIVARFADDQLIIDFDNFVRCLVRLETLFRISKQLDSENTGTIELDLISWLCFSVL
# [4] = loss of viability in HepG2 cells – cell-based, CellTiter-Glo, cherry-picked, cytotoxicity control for Shn3 inhibitor project, dose response (AID 624134); format: functional
# [5] = target: T2, Heat shock factor protein 1 (Mus musculus, UniProt P38532); experiment: decrease of HSF1-responsive luciferase luminescence – cell-based, NIH3T3, dose retest, confirmation (AID 2382); format: functional;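 note: NIH3T3 fibroblasts with HSF1-driven luciferase reporter stressed by proteasome inhibitor MG132; luminescence from HSF1-driven luciferase expression after 8 hours of MG132 stress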
# T2 sequence (P38532 whole entry): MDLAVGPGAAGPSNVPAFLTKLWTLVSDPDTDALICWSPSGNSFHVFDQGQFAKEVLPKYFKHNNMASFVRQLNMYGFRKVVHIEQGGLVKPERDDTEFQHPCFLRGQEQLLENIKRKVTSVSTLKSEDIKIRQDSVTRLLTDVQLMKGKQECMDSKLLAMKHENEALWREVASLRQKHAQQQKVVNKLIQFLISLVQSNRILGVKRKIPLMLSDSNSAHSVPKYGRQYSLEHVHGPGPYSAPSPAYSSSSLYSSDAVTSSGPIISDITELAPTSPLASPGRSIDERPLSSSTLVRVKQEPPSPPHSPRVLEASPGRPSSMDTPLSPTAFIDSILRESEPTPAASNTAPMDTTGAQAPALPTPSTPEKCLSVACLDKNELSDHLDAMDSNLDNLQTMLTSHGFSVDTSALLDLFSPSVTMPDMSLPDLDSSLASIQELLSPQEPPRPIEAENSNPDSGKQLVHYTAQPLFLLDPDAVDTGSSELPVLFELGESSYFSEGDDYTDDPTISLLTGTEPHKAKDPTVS
# [6] = non-specific 3'UTR reporter inhibition in Clone20-Shn3RL – cell-based, Renilla luciferase, cherry-picked, counter-screen for Shn3 inhibitor project, dose response (AID 624133); format: functional
# [7] = reduction of Shn3 3'UTR-driven luciferase in osteoblasts – cell-based, Clone20 osteoblasts, firefly luciferase, cherry-picked, dose response (AID 624132); format: functional;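 note: firefly luciferase luminescence from reporter carrying the Shn3 3'UTR in osteoblasts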
# [8] = target: Prothrombin (Homo sapiens, UniProt P00734); experiment: Thrombin 1536 HTS Dose Response Confirmation. [Related pubchem assays: 1046 (Thrombin 1536 HTS; hits were confirmed in this assay)]; format: functional
# [9] = cells; format: functional, cell-based
# [10] = system: INS1; experiment: INS-1E survival protection against cytokine death – cell-based, luminescence, retest, dose response (AID 449756); format: functional; conditions: Rattus norvegicus;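 note: cell death triggered by IL-1 beta plus TNF-alpha plus IFN-gamma mixture; protective hits raise ATP signal compared with cytokine alone wells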
# [11] = target: Nonstructural protein 1 (Influenza A virus, UniProt Q194T2); format: functional, Influenza A virus (A/California/07/2009(H1N1))
# Sequence of Nonstructural protein 1 (Q194T2 whole entry): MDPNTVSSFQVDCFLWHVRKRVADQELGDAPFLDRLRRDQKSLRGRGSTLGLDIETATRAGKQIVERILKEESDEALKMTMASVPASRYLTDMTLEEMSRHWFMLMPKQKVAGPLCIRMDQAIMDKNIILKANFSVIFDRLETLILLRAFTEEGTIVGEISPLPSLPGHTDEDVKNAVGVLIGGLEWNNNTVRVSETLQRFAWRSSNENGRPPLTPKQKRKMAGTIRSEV
# [12] = cells; format: functional, cell-based; remark: listed apart in the source
# [13] = viability of uninfected HEp-2 cells – cell-based, HTS, cytotoxicity control for RSV inhibitor project, dose response (AID 2410); format: functional; conditions: human respiratory syncytial virus
# [14] = target: Large T antigen (Simian virus 40, UniProt P03070); format: functional, Betapolyomavirus macacae;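 note: Confirmatory-stage PubChem screen for compounds that inhibit SV40 T antigen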
# Sequence of Large T antigen (P03070 whole entry): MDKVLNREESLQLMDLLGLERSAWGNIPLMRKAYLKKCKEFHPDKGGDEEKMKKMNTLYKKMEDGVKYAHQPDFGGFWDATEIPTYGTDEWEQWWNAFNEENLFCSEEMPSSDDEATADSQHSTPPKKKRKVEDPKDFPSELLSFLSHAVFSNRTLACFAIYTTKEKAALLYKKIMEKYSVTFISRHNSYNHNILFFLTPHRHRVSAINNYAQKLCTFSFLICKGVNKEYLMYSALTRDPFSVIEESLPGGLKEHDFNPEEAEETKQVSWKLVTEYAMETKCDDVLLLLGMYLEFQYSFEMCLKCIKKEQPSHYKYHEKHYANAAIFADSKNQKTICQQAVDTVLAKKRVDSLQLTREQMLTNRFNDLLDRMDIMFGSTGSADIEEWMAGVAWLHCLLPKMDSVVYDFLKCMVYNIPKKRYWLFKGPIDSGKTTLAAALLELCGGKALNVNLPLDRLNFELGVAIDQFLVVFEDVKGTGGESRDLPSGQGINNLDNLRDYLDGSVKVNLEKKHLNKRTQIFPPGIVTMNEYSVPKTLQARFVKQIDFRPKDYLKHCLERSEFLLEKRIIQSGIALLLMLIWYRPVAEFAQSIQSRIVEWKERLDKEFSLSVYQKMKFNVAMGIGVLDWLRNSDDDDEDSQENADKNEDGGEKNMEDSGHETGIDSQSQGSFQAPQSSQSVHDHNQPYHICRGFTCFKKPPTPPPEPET
# [15] = target: T3, Polyadenylate-binding protein 1 (Homo sapiens, UniProt P11940); experiment: MLLE binding blockers, Cy5 peptide tracer – biochemical, fluorescence polarization, Cy5-PAM2 peptide, secondary, miRNA deadenylation inhibitor project, dose response (AID 602260); format: functional; conditions: read-out: IC50_Mean
# T3 sequence (P11940 whole entry, the tested form may be a part): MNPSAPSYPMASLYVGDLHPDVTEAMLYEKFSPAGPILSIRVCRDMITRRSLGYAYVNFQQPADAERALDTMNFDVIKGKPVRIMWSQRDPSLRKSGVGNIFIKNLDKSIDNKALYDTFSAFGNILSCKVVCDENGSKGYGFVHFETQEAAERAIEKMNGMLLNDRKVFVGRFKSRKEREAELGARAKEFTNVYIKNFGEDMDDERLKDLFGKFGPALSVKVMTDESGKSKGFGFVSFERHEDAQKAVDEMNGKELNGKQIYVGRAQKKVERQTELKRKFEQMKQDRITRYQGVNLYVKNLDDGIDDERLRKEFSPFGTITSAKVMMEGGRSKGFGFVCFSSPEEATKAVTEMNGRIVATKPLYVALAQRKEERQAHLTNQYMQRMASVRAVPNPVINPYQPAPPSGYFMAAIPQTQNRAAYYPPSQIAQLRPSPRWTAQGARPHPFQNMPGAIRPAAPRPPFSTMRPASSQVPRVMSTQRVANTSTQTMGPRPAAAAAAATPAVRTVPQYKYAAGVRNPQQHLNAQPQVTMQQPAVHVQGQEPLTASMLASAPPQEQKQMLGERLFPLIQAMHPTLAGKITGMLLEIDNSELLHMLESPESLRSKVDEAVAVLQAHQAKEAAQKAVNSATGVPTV
# [16] = target: T3, Polyadenylate-binding protein 1; experiment: MLLE domain peptide-binding blockers, IC50 – biochemical, fluorescence polarization, FITC-PAM2 peptide, dose response (AID 602259); format: functional; conditions: read-out: IC50_Mean
smiles,measurement,setting,value
N#Cc1ccc(/C=C/C(=O)c2ccco2)cc1,EC50,[1],17.2 µM (active)
same,EC50,[2],16.6 µM (active)
Cc1cccc(N/C=C/C(=C(C#N)C#N)N(C)C)c1,IC50,[3],15.6 µM (not active)
CCOC(=O)c1c(CSCc2ccccc2)oc2ccc(O)c(CN(C)C)c12,AC50,[4],22.2 µM (active)
same,EC50,[5],> 195 µM (not active)
same,AC50,[6],10.7 µM (active)
same,AC50,[7],9.79 µM (active)
Cc1ccc(S(=O)(=O)CC(=O)Nc2c(C)n(C)n(-c3ccccc3)c2=O)cc1,IC50,[8],3.58 µM (active)
COc1cnc(-c2ccccn2)nc1N(C)C,EC50,[9],8.34 µM (active)
same,AC50,[10],8.4 µM (active)
same,IC50,[11],1.92 µM (active)
same,EC50,[12],214 µM (active)
O=C1OC(Nc2ccc(F)c([N+](=O)[O-])c2)c2ccccc21 (configuration not stated),IC50,[8],> 50 µM (not active)
CCCC(=O)n1nc(-c2ccco2)nc1N,IC50,[8],1.28 µM (active)
COc1ccc(C(C)C)cc1S(=O)(=O)Nc1ccncc1,IC50,[8],> 50 µM (not active)
CCC(=O)Nc1ccc(C(=O)CSc2nc3ccccc3cc2CC)cc1,IC50,[8],> 50 µM (not active)
Cn1nc(-c2ccc(Cl)cc2)c2cc(C(=O)N3CCN(c4ccccn4)CC3)sc21,AC50,[4],> 70 µM (inactive)
same,AC50,[6],28.6 µM (active)
same,AC50,[7],4.02 µM (active)
same,CC50,[13],3.7 µM (active)
O=C(COC(=O)C12CC3CC(CC(O)(C3)C1)C2)NCCc1ccc(Cl)cc1,IC50,[8],> 50 µM (not active)
COc1ccc(-n2c(=O)c3c4c(sc3n3c(=S)[nH]nc23)CCC4)cc1,IC50,[14],20.4 µM (active)
CC(C)Cn1c(N)c(C(=O)COC(=O)c2ccc(F)cc2)c(=O)n(C)c1=O,IC50,[3],4.8 µM (not active)
CC(=O)c1ccc(NC(=O)c2noc(C(C)C)c2[N+](=O)[O-])cc1,IC50,[3],3.66 µM (active)
O=C1CC(c2ccccc2)Cc2nc(N3CCc4ccccc4C3)ncc21 (configuration not stated),IC50,[15],> 66 µM (inactive)
same,IC50,[3],6.43 µM (not active)
same,IC50,[16],> 66 µM (inactive)
